# What was measured:
# glucose-loaded mice = assay: Hypoglycemic, glucose-loaded mice; assay type: in vivo, mouse; settings: for H = Hypoglycemic: percent decrease in serum glucose concentration: glucose loaded mice, 100 mg/kg oral dose, significance >20; for ED100: Mus musculus, po, 1 h, p.o., reference compounds, read-out: ED-100, hypoglycemic, mice
# Method: Reduction in blood glucose concentration by more than 20% (>20) in fasted, glucose-loaded (1 gm/kg) mice one hour after dosing, p.o., indicates activity (test compound administered at same time as glucose load).
# ^5 H = Hypoglycemic. Percent decrease in serum glucose concentration
# in glucose loaded mice hr. following a 100 mg/kg oral dose.
# [1] = tested on: spontaneously hypertensive rats (SHR); assay: Antihypertensive: blood pressure (tail cuff) in spontaneously hypertensive rats (SHR); assay type: in vivo, rat; settings: for inhibition in vivo at 100 mg/kg: 6 hr. after a 100 mg/kg oral dose, significance >10, read-out: Antihypertensive: percent decrease in systolic blood pressure in spontaneously hypertensive rats
# Method: Blood pressure was measured indirectly (tail cuff) in unanesthetized, unheated spontaneously hypertensive rats (SHR) before and 2, 4, and 6 hours after p.o. dosing. Reduction in mean pressure by more than 10% (>10) at any two consecutive measurement times after dosing indicates antihypertensive activity.
# mice [2] = assay: Pupil dilation in mice; assay type: in vivo, mouse; settings: i.p.; for Reference dose, pupil dilation: reference compounds and the doses thereof
# Method: If the pupil diameter of mice exceeds 1.0 mm (>1) in bright light 30 minutes after dosing, i.p., ganglionic blockage or anti-cholinergic activity is indicated in the absence of adrenergic action. The following are reference compounds and the doses thereof.
# mice [3] = assay: Antiarrhythmic: chloroform-induced cardiac arrhythmia in mice; assay type: in vivo, mouse; settings: for A = Antiarrythmic: mouse hearts fibrillating (of 3): 15 min. after a 200 mg/kg intraperitoneal dose, significance <2
# Method: ^2 A = Antiarrythmic. Less than 2/3 mouse hearts fibrillating 15 min.
# [4] = Anticholinergic properties (overall statement); settings: in vivo
# rats [5] = assay: Bradycardia: heart rate by EKG in rats; assay type: in vivo, rat; settings: Rattus norvegicus, 0.75 h; 45 min. after a 5 mg/kg oral dose in rats; significance >10; read-out: B = Bradycardiac: percent decrease in heart rate
# Method: […] Decrease in heart rate by more than 10% (>10) is considered a bradycardic effect.
# Percent decrease in heart rate 45 min. after a 5
# mg/kg oral dose in rats.
# rats [6] = assay: Antiulcer: stress induced gastric ulcers in rats; assay type: in vivo, rat; settings: for inhibition in vivo at 50 mg/kg: 4 hr. following a 50 mg/kg oral dose in rats, significance >60, read-out: U = Antiulcerative: percent inhibition of stress ulcers
# Method: Fasted rats were dosed, p.o., 30 minutes before immobilization in wire mesh and partial immersion in water for 4 hours. Inhibition of the resulting stress induced gastric ulcers by more than 60% (>60) indicates activity.
# ^6 U = Antiulcerative. Percent inhibition of stress ulcers 4 hr.
# following a 50 mg/kg oral dose in rats.
# [7] = tested on: hypercholesterolemic mice; assay: Hypocholesterolemic: serum cholesterol in hypercholesterolemic mice; assay type: in vivo, mouse; settings: hypercholesterolemic mice; for inhibition in vivo at 200 mg/kg / ED100: Mus musculus; for inhibition in vivo at 200 mg/kg: 2 oral doses of 200 mg/kg 20 hr. apart, significance >20, read-out: C = Hypocholesterolemic: percent decrease in serum cholesterol; for ED100: po, read-out: ED-100, hypocholesterolemic
# Method: Mice made hypercholesterolemic by being fed a high cholesterol-cholic acid diet for 7 days were dosed on the sixth and seventh days, p.o. After fasting overnight, reduction in serum cholesterol concentration by more than 15% (>15) from hypercholesterolemic control mice indicates activity.
# ^4 C = Hypocholesterolemic. Percent decrease in serum cholesterol in
# hypercholesterolemic mice given 2 oral doses of 200 mg/kg drug candidate
# starch loaded mice = assay: Carbohydrate (CHO) efficiency/hypoglycemic, starch loaded mice; assay type: in vivo, mouse; settings: for ED100: Mus musculus, 1 h, oral, reference compounds, read-out: ED-100, CHO efficiency/hypoglycemic
# rats [8] = assay: Antiedema: carrageenan paw edema in rats; assay type: in vivo; settings: Rattus norvegicus, po, 3 h, read-out: ED-100, antiedema
# Method: Rats are dosed p.o. one hour before intraplantar injection of carrigeenan (0.1 ml, 1% susp.). Inhibition of paw edema by more than 30% (>30) 3 hours after carriegeenan injection indicates acute anti-edema activity.
# mice [9] = assay: Central anticholinergic: oxotremorine tremors in mice; settings: Mus musculus, ip, 1 h, read-out: ED-100, central anticholinergic
# mice [10] = assay: Peripheral anticholinergic: lacrimation and salivation in mice; assay type: in vivo; settings: Mus musculus, ip, read-out: ED-100, peripheral anticholinergic
# mice [11] = assay: Acute toxicity / autonomic effects observation; settings: mouse, in vivo
# Method: Mice were dosed at 300 mg/kg, per oral (p.o.) and […], interperitoneal (i.p.) for observation of any acute toxic symptoms or autonomic effects during the subsequent 72 hours. If none were noted, pharmacological evaluation proceeded employing doses and concentrations for each test based on appropriate multiples of doses required by suitable reference compounds. If acute toxicity was observed initially, the minimal toxic dose was determined and pharmacological screening doses were reduced proportionately.
# [12] = Central nervous system (CNS) depression/effects; settings: in vivo
# [13] = tested on: hypercholesterolemic mice; assay: HP-betalipoprotein: serum heparin precipitating lipoprotein (HPL); assay type: in vivo, mouse; settings: hypercholesterolemic mice; for ED100: Mus musculus, po, read-out: ED-100, HP-betalipoprotein
# Excerpt: Reduction of serum heparin precipitating lipoprotein (HPL) concentrations (corresponding to low density lipoprotein and very low density lipoprotein fractions) in the same hypercholesterolemic mice from Test 6 above by more than 20% (>20) from control animals indicates activity.
# [14] = Overall pharmacological profile; settings: in vivo
# [15] = p.o., rats, reference compounds
compound,measurement,setting,value
CC1(C)CCCC(C)(C)N1CC1=CC(=O)N(c2ccccc2Cl)C1 [Compound 9],H = Hypoglycemic: percent decrease in serum glucose concentration,glucose-loaded mice,27%
same,inhibition in vivo at 100 mg/kg,[1]; Rattus norvegicus,31%
same,Ganglionic blockade as cause of pupillary dilation,mice [2]; 25 mg/kg,does not appear to reflect ganglionic blockade
same,Pupil dilation,mice [2]; 25 mg/kg,Pupillary dilation was again noted
same,A = Antiarrythmic: mouse hearts fibrillating (of 3),mice [3],0
same,Anticholinergic properties/effects,[4],not likely anticholinergic in nature
same,inhibition in vivo at 5 mg/kg,rats [5],18%
same,inhibition in vivo at 50 mg/kg,rats [6]; Rattus norvegicus,100%
same,inhibition in vivo at 200 mg/kg,[7],0%
insulin,"ED-100, CHO efficiency/hypoglycemic (insulin)",starch loaded mice; subcutaneous (s.c.),0.25 U
same,"ED-100, hypoglycemic, mice (insulin)","glucose-loaded mice; s.c., glucose-loaded mice",0.25 U
"[H]/N=C(/N)N/C(=N/[H])NCCc1ccccc1 [phenformin, reference compound]",ED100,starch loaded mice,100 mg/kg
same,ED100,glucose-loaded mice; glucose-loaded mice,100 mg/kg
CCCCC1C(=O)N(c2ccccc2)N(c2ccccc2)C1=O [phenylbutazone],ED100,rats [8]; [15],50 mg/kg
"CN1[C@@H]2CC[C@H]1C[C@@H](OC(=O)C(CO)c1ccccc1)C2 (some centres unmarked) [atropine, reference compound]",ED100,mice [9],2 mg/kg
same,"Reference dose, pupil dilation",mice [2],0.25 mg/kg
same,ED100,mice [10],0.25 mg/kg
same,ED100,"rats [6]; Rattus norvegicus, po, read-out: ED-100, antiulcer",5 mg/kg
CN(C)CCC=C1c2ccccc2CCc2ccccc21 [amitriptyline],ED100,mice [9],10 mg/kg
same,ED100,"mice [10]; mice, reference compounds",25 mg/kg
CC(C(=O)O)c1cccc(C(=O)c2ccccc2)c1 (centres unmarked) [ketoprofen],ED100,rats [8],5 mg/kg
CC1(C)CCCC(C)(C)N1CC1=CC(=O)N(c2cccc(Cl)c2)C1 [Compound 13],Acute toxicity / toxic effects,mice [11],absence
same,inhibition in vivo at 100 mg/kg,[1]; Rattus norvegicus,4%
same,CNS depression / CNS effects,[12],absence of CNS
same,A = Antiarrythmic: mouse hearts fibrillating (of 3),mice [3],3
same,Anticholinergic properties/effects,[4],absence
same,inhibition in vivo at 5 mg/kg,rats [5],1%
same,inhibition in vivo at 50 mg/kg,rats [6]; Rattus norvegicus,88%
same,inhibition in vivo at 200 mg/kg,[7],13%
"CCCCNC(=O)NS(=O)(=O)c1ccc(C)cc1 [tolbutamide, reference compound]",ED100,starch loaded mice,50 mg/kg
same,ED100,glucose-loaded mice; glucose-loaded mice,50 mg/kg
"COc1ccc(Cl)cc1C(=O)NCCc1ccc(S(=O)(=O)NC(=O)NC2CCCCC2)cc1 [glibenclamide, reference compound]",ED100,starch loaded mice,1 mg/kg
same,ED100,glucose-loaded mice; glucose-loaded mice,1 mg/kg
"CNC1(C)C2CCC(C2)C1(C)C (centres unmarked) [mecamylamine, reference compound]",ED100,"[1]; Rattus norvegicus, po, SHR, reference compounds, read-out: ED-100, antihypertensive",10 mg/kg
same,"Reference dose, pupil dilation",mice [2],2.5 mg/kg
"N[C@H](Cc1cc(I)c(Oc2cc(I)c(O)c(I)c2)c(I)c1)C(=O)O [D-thyroxine, reference compound]",ED100,[13]; reference compounds,10 mg/kg
same,ED100,[7]; reference compounds,10 mg/kg
CN1CCN(C2=Nc3cc(Cl)ccc3Nc3ccccc32)CC1 [clozapine],ED100,mice [9],10 mg/kg
same,ED100,"mice [10]; mice, reference compounds",10 mg/kg
COc1ccc(N2CC(CN3C(C)(C)CCCC3(C)C)=CC2=O)cc1OC [Compound 12],inhibition in vivo at 100 mg/kg,[1]; Rattus norvegicus,14%
same,A = Antiarrythmic: mouse hearts fibrillating (of 3),mice [3],2
same,Profile (comparison with another compound),[14],generally similar to that of Compound 6
same,inhibition in vivo at 5 mg/kg,rats [5],13%
same,inhibition in vivo at 50 mg/kg,rats [6]; Rattus norvegicus,75%
same,inhibition in vivo at 200 mg/kg,[7],3%
C[C@]12CCC(=O)C=C1CC[C@@H]1[C@@H]2[C@@H](O)C[C@@]2(C)[C@H]1CC[C@]2(O)C(=O)CO [hydrocortisone],ED100,rats [8],25 mg/kg
"c1cc(N2CCCCC2)ccc1OC12CC3CC(CC(C3)C1)C2 [Compound U-41792, reference compound]","ED-100, HP-betalipoprotein",[13]; reference compounds,200 mg/kg
same,"ED-100, hypocholesterolemic","[7]; p.o., reference compounds",200 mg/kg
CC1(C)CCCC(C)(C)N1CC1=CC(=O)N(c2cccc(C#N)c2)C1 [Compound 15],Acute toxicity / toxic effects,mice [11],absence
same,inhibition in vivo at 100 mg/kg,[1]; Rattus norvegicus,19%
same,CNS depression / CNS effects,[12],absence of CNS depression
same,A = Antiarrythmic: mouse hearts fibrillating (of 3),mice [3],3
same,Anticholinergic properties/effects,[4],absence
same,inhibition in vivo at 5 mg/kg,rats [5],0%
same,inhibition in vivo at 50 mg/kg,rats [6]; Rattus norvegicus,88%
same,"Antiulcer effect, in words","rats [6]; rat, in vivo",unusual and strong activity
same,inhibition in vivo at 200 mg/kg,[7],15%
COc1ccc2c(c1)c(CC(=O)O)c(C)n2C(=O)c1ccc(Cl)cc1 [indomethacin],ED100,rats [8],4 mg/kg
"CC(C)(Oc1ccc(CCNC(=O)c2ccc(Cl)cc2)cc1)C(=O)O [bezafibrate, reference compound]",ED100,[13]; reference compounds,200 mg/kg
same,ED100,[7]; reference compounds,200 mg/kg
Cc1cccc(N2CC(CN3C(C)(C)CCCC3(C)C)=CC2=O)c1 [Compound 4],HPL/cholesterol ratio,"[13]; 400 mg/kg, p.o.",marked reduction
same,inhibition in vivo at 100 mg/kg,[1]; Rattus norvegicus,23%
same,"Antihypertensive activity, onset / comparison in words",[1]; p.o.,generally comparable to that of Compound 3
same,Dose at which antihypertensive effects were decreasing,[1]; p.o.,10 mg/kg
same,Pupil dilation,mice [2]; 50 mg/kg,significantly dilated
same,A = Antiarrythmic: mouse hearts fibrillating (of 3),mice [3],2
same,Dose with borderline antiarrhythmic result,"mice [3]; i.p., mice, chloroform arrhythmia",100 mg/kg
same,inhibition in vivo at 5 mg/kg,rats [5],19%
same,inhibition in vivo at 50 mg/kg,rats [6]; Rattus norvegicus,75%
same,inhibition in vivo at 200 mg/kg,[7],25%
COc1ccc2cc([C@H](C)C(=O)O)ccc2c1 [naproxen],ED100,rats [8]; [15],5 mg/kg
O=C(O)c1cc(-c2ccc(F)cc2F)ccc1O [diflunisal],ED100,rats [8]; [15],25 mg/kg
CSc1ccc(N2CC(CN3C(C)(C)CCCC3(C)C)=CC2=O)cc1 [Compound 8],inhibition in vivo at 100 mg/kg,[1]; Rattus norvegicus,25%
same,A = Antiarrythmic: mouse hearts fibrillating (of 3),mice [3],3
same,Profile (comparison with another compound),[14],generally similar to that of Compound 6
same,inhibition in vivo at 5 mg/kg,rats [5],18%
same,inhibition in vivo at 50 mg/kg,rats [6]; Rattus norvegicus,50%
same,inhibition in vivo at 200 mg/kg,[7],0%
CC1(C)CCCC(C)(C)N1CC1=CC(=O)N(c2cccc(C(F)(F)F)c2)C1 [Compound 1],Acute toxicity / toxic effects,mice [11],apparent lack of acute toxicity
same,H = Hypoglycemic: percent decrease in serum glucose concentration,glucose-loaded mice,14%
same,inhibition in vivo at 100 mg/kg,[1]; Rattus norvegicus,19%
same,CNS depression / CNS effects,[12],absence of notable central nervous system (CNS) depression
same,A = Antiarrythmic: mouse hearts fibrillating (of 3),mice [3],0
same,Anticholinergic properties/effects,[4],absence of notable
same,inhibition in vivo at 5 mg/kg,rats [5],14%
same,inhibition in vivo at 50 mg/kg,rats [6]; Rattus norvegicus,75%
same,inhibition in vivo at 200 mg/kg,[7],5%
OC(CCN1CCCCC1)(c1ccccc1)C1CCCCC1 (centres unmarked) [trihexyphenidyl],ED100,mice [9],10 mg/kg
same,ED100,"mice [10]; mice, reference compounds",2.5 mg/kg
CC1(C)CCCC(C)(C)N1CC1=CC(=O)N(c2ccc(C(F)(F)F)cc2)C1 [Compound 7],H = Hypoglycemic: percent decrease in serum glucose concentration,glucose-loaded mice,22%
same,inhibition in vivo at 100 mg/kg,[1]; Rattus norvegicus,16%
same,A = Antiarrythmic: mouse hearts fibrillating (of 3),mice [3],3
same,Profile (comparison with another compound),[14],generally similar to that of Compound 6
same,inhibition in vivo at 5 mg/kg,rats [5],12%
same,inhibition in vivo at 50 mg/kg,rats [6]; Rattus norvegicus,38%
same,inhibition in vivo at 200 mg/kg,[7],0%
"CC/C(=C(/CC)c1ccc(O)cc1)c1ccc(O)cc1 [diethylstilbestrol, reference compound]",ED100,[13]; reference compounds,200 mg/kg
same,ED100,[7]; reference compounds,200 mg/kg
